Patent publication US20250018019A1, “TREATMENT OF INTERFERON DRIVEN INFLAMMATION” (The Provost, Fellows, Foundation Scholars and the other …, priority 2023, published 2025)
Structures can show the parent of a compound that is named as a salt.

Key:
BMDMs = assay: Digitonin fractionation, qPCR of mtDNA and mtRNA; format: cell-based, mouse
Description: All compounds used DMSO as a vehicle except for 4-hydroxy tamoxifen (EtOH), NAC (PBS), and AOAA for tracing experiments (Media). LPS was used at a concentration of 100 ng/ml for indicated timepoints (2, 3, 4, 6, 8, 24, 48 h). FHIN1 (10 or 20 μM), MMF (50 or 100 μM), DMF (25 μM), AOAA (5 mM), oligomycin (10 μM), CCCP (50 μM) NAC (1 mM), and IMT1 (10 μM) pre-treatments were performed for 3 h prior the addition of LPS. Cells were treated with valinomycin (10 nM) 15 mins before LPS stimulation. Anti-CD210 or IgG control (10 μg/ml) antibodies were added to cells 1 h prior to LPS stimulation. Recombinant mouse IL-10 protein (100 ng/ml) was added to cells at the same time as LPS. Cells were treated with IFN-B1 (220 ng/ml) for 3 h. Cells were treated with C-178 (1 μM) 1 h prior to LPS stimulation or transfection with 2′3′-cGAMP (1.5 μg/ml) for 4 hrs to achieve cGAS-STING activation. Cells were treated with ODN 2088 (1 μM) for 1 hr prior to LPS stimulation or transfection with CPG ODN 1826 (1.5 μg/ml) to achieve TLR9 activation. 3 different timepoints of 4-hydroxy tamoxifen (TAM) (600 nM or 2 μM) or EtOH treatment were performed-these are specified in the individual figure legends. For ‘48 h’ treatments EtOH/TAM was added on day 5 of 6 during the BMDM differentiation protocol. On day 6 they were plated with EtOH/TAM (left overnight) and treated the following day. For ‘72 h’ treatments EtOH/TAM was added on day […] of 6 during the BMDM differentiation protocol. On day 6 they were plated with EtOH/TAM (left overnight) and treated the following day. For ‘96 h’ treatments EtOH/TAM was added on day […] of 6 during the BMDM differentiation protocol. On day 6 they were plated with EtOH/TAM and treated 2 days later.
BMDMs were plated at 0.5×10^6 cells/well and treated as desired. After treatment, cells were washed once with room temperature PBS, before being scraped on ice into ice cold PBS and pelleted at 500×g for 5 mins at 4° C. Supernatant was removed and discarded, and the pellet was resuspended in 400 μl extraction buffer (150 mM NaCl, 50 mM HEPES pH 7.4, 25 μg/ml digitonin). Samples were then placed in a rotating mixer at 4° C. for 10 mins before centrifugation at 2000×g at 4° C. for 5 mins. The resulting supernatant constituted the cytosolic fraction, from which RNA and DNA were isolated using an AllPrep DNA/RNA Mini Kit (Qiagen). Alternatively, the cytosolic fraction was concentrated using Strataclean Resin (Agilent) and analysed by western blot. The pellet constituted a fraction containing membrane-bound organelles which was lysed in RNA lysis buffer for RNA isolation or lysed in western blot lysis buffer for analysis by western blot. To determine the presence of mtRNA and mtDNA in the cytosol, qPCR was performed using primers specific for mitochondrial D-loop on cDNA which had been reverse-transcribed from RNA isolated from the cytosolic fraction (mtRNA) and on DNA isolated from the cytosolic fraction (mtDNA). In both cases, values were normalised using a housekeeping control gene (β-actin) amplified in cDNA which had been reverse-transcribed from RNA isolated from the membrane-bound fraction.

MAVS = MAVS oligomerisation; format: cell-based, mouse; details: BMDMs pre-treated, LPS 4 h
Description: BMDMs were plated at 1×10^6 cells/well in technical triplicate and treated as desired. After treatment, cells were washed twice with 200 μl cold PBS before being lysed in crosslinking lysis buffer (50 mM HEPES, 0.5% triton X-100, 1X protease inhibitor cocktail). Samples were placed on ice for 15 mins. Lysates were centrifuged for 15 mins at 6000×g at 4° C. and the supernatant was removed and frozen down as the ‘soluble fraction.’ 20 μl of the soluble fraction was mixed with 5 μl of sample lysis buffer (0.125 M Tris pH 6.8, 10% glycerol, 0.02% SDS, 5% DTT) and run on a 10% gel. The insoluble pellet was resuspended in HEPES (50 mM) and washed 3 times by centrifuging at 6000×g at 4° C. and removing the supernatant each time. After the final wash, the pellet was resuspended in 500 μl crosslinking buffer (50 mM HEPES, 150 mM NaCl) and disuccinimidyl suberate (DSS, Thermo Fisher, made up in anhydrous DMSO) was added to the final concentration of 2 mM. Immediately following the addition of DSS, the sample was inverted several times and incubated for 45 mins at 37° C. The sample was then centrifuged for 15 mins at 6000×g at 4° C., before the supernatant was removed and the pellet was resuspended in 30 μl sample lysis buffer. The resuspended ‘insoluble fraction’ was subsequently boiled for 5 mins at 95° C. before being run on a gel.

human macrophages = assay: RT-qPCR gene expression in human macrophages; format: cell-based; details: LPS-stimulated human macrophages, LPS 4 h
Description: PBMCs were taken, and CD14+ monocytes were isolated using MagniSort Human CD14 Positive Selection Kit (Thermo Fisher) according to the manufacturer's protocol. CD14 Monocytes were then differentiated in T-175 flasks in RPMI containing FCS (10%), penicillin/streptomycin (1%) and recombinant human M-CSF (1:1000). After 6 days, the supernatant was discarded, cells were scraped and counted, and human monocyte-derived macrophages (hMDMs) were plated in 12-well plates at 1×10^6 cells/mL RPMI containing FCS (10%) and penicillin/streptomycin (1%).
All compounds used DMSO as a vehicle except for 4-hydroxy tamoxifen (EtOH), NAC (PBS), and AOAA for tracing experiments (Media). […]
RNA extraction from cells was carried out using a Purelink™ RNA kit (Invitrogen) according to the manufacturer's instructions. […] Isolated RNA was quantified using a NanoDrop 2000 spectrophotometer, and RNA concentration was normalised to the lowest concentration across all samples with RNAse-free water. If necessary, samples were DNAse-treated after quantification using DNAse I (Thermo Fisher) according to the manufacturer's instructions. […] Real-time quantitative PCR was performed on the cDNA generated in the previous step, using primers designed in-house and ordered from Eurofins Genomics, as detailed in Table S2. […] Relative expression (2^−ΔΔCT) was calculated from the CT values for each sample and gene of interest.

**Q.** Which results are given for `CCOC(=O)[C@@]12CCCC=C1N(Cc1ccc(-c3ccccc3)cc1)C(=O)[C@H]2CC(=O)NC` [FHIN1, Fumarate hydratase-IN-1]?
**A.** mtRNA in whole cell fraction (BMDMs; BMDMs pre-treated, LPS 4 h): not in the whole cell fraction; mtDNA in cytosolic extracts (D-loop) (BMDMs; digitonin-fractionated BMDMs): increase; mtRNA in cytosolic extracts (BMDMs; digitonin-fractionated BMDMs): increased; MAVS oligomerisation (MAVS): observed MAVS oligomerisation; IL10 expression (human macrophages): suppressed; Tnfa expression (human macrophages): increased
